Measurements taken from ChEMBL document CHEMBL2417430, “A synthetic approach to novel carvotacetone and antheminone analogues with anti-tumour activity” (Bioorg Med Chem Lett, 2013).

System: A549
Assay: Cytotoxicity against human A549 cells after 4 days by MTT assay
Format: functional, cell-based
Conditions: A549, 96 h

Q: With C/C=C/C(=O)OCC1=C[C@H](O)[C@@H]2C[C@@H]2C1=O as the compound, how does the IC50 read?
A: Its IC50 is 18.1 µM.

Q: Which IC50 does the source give for C/C=C/C(=O)OCC1=C[C@H](O)[C@@H](C(C)C)CC1=O here?
A: The IC50 was 14 µM.

Q: C/C=C/C(=O)OCC1=C[C@H](O)[C@H](c2ccccc2)CC1=O was tested. Which IC50 did it give?
A: Its IC50 is 8 µM.

Q: Which IC50 does the source give for CC(C)[C@H]1CC(=O)C(CO)=C[C@@H]1O here?
A: The IC50 was 159 µM.

Q: With C/C=C/C(=O)OCC1=C[C@@H](O)CCC1=O as the compound, how does the IC50 read?
A: The IC50 was 16.7 µM.

Q: How did the IC50 turn out when C/C=C/C(=O)OCC1=C[C@H](O)[C@@H](c2ccccc2)CC1=O was run?
A: Its IC50 is 1.3 µM.

System: MCF-10A
Assay: Cytotoxicity against human MCF10A cells after 4 days by MTT assay
Format: cell-based
Conditions: 96 h

Q: For C/C=C/C(=O)OCC1=C[C@H](O)[C@@H](c2ccccc2)CC1=O, which IC50 is on record?
A: The IC50 was 1.8 µM.
